Converted amounts (≈) assume the structure as drawn.
Key:
[1] = test system: Staphylococcus aureus-SMITH (GC 4543); experiment: acute lethal infection in mice; type: in vivo; conditions: acute lethal infection, female CD-1 mice, intraperitoneal challenge, intravenous 30 min. after infection, 7 day survival
In short: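 Protocol: bacteria suspended in trypticase soy broth or hog gastric mucin injected ip into female CD-1 mice at a level killing untreated controls in 24-48 hr; compound given iv in saline or 5% dextrose 30 min post-challenge; five mice per dose; ED50 derived from pooled 7 day survival of three runs.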

[2] = clinical pathology (serum clinical chemistry) in mice; type: in vivo; conditions: CD-1 mice, 20 mg/kg intravenously daily for 9 days, sera day 10
Procedure: 20-day-old CD-1 mice were divided into a vehicle control group (5 mice) and a treatment group (5 mice). Samples of glycopeptide antibiotics were administered at 20 mg/kg intravenously daily for 9 days.

[3] = test system: Streptococcus sp.; experiment: in vitro antibacterial evaluation, MIC by broth dilution; type: cell-based; conditions: broth dilution, 18 hours at 35° C.
In short: (§1)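 Inoculum 5×10^5 CFU/mL; concentrations 64 to 0.06 μg/mL; MIC defined as lowest inhibitory level. Conducted by broth dilution under NCCLS guidelines.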

[4] = test system: Staphylococcus sp.; experiment: as above; type: cell-based; conditions: broth dilution, 18 hours at 35° C.
In short: as §1

[5] = test system: Enterococcus sp.; experiment: as above; type: cell-based; conditions: broth dilution, 18 hours at 35° C.
In short: as §1

[6] = test system: Escherichia coli; experiment: as above; type: cell-based; conditions: 18 hours at 35° C.
[7] = anatomic pathology (histopathology of heart and kidney) in mice; type: in vivo; conditions: CD-1 mice, 20 mg/kg intravenously daily for 9 days, necropsy day 10, microscopic histopathology
Procedure: Samples of tissues from necropsied mice were formalin-fixed, paraffin-embedded, sectioned, stained with hematoxylin and eosin, and examined microscopically. Histopathologic findings were recorded. These findings were subjectively graded on a scale corresponding to slight, mild, moderate, marked and severe as compared to untreated controls.

For `COc1ccc2cc(COCC3OC(OC4C(CO)OC(Oc5ccc(CC6NC(=O)C(C(C)c7ccccc7)NC(=O)CNC(=O)C(CO)NC(=O)C(C(O)C7CNC(=N)N7C7OC(CO)C(O)C(O)C7O)NC(=O)C(C(O)C7CNC(=N)N7)NC6=O)cc5)C(O)C4O)C(O)C(O)C3O)ccc2c1` (stereo not drawn) [Example 230, Cyclo[glycyl-β-methylphenylalanyl-O-[4-O-[6-O-[(6-methoxy-2-naphthyl)methyl]hexopyranosyl]hexopyranosyl]tyrosyl-3-(2-iminoimidazolidin-4-yl)seryl-3-(3-hexopyranosyl-2-iminoimidazolidin-4-yl)serylseryl]], the median effective dose (ED50), Staphylococcus aureus-SMITH (GC 4543) [1] was 0.12 mg/kg, the “Clinical Chemistry (Day 10) % of Control, BUN” value [2] was “+179%” and the “Clinical Chemistry (Day 10) % of Control, Creatinine” value [2] was “+124%”. For the same compound, the “MIC Streptococcus agalactiae (GC 4564)” value [3] was 0.5 µg/mL (≈ 0.341 µM), the “MIC Streptococcus pneumoniae (ATCC 6301)” value [3] was 0.12 µg/mL (≈ 0.0819 µM) and the “MIC Streptococcus pneumoniae (GC 1894)” value [3] was <0.06 µg/mL. The “MIC Streptococcus pneumoniae (GC 4565)” value [3] was 0.12 µg/mL (≈ 0.0819 µM), the “MIC Streptococcus pyogenes (GC 4563)” value [3] was 0.25 µg/mL (≈ 0.171 µM) and the “MIC Streptococcus pneumoniae (ATCC 6301)” value ([3]; inoculum 5×10^5 CFU/mL, strain ATCC 6301) was 0.12 µg/mL (≈ 0.0819 µM). The “MIC Streptococcus pneumoniae (GC 1894)” value ([3]; inoculum 5×10^5 CFU/mL, strain GC 1894) was <0.06 µg/mL, the “MIC Streptococcus pyogenes (GC 4563)” value ([3]; inoculum 5×10^5 CFU/mL, strain GC 4563) was 0.25 µg/mL (≈ 0.171 µM) and the “MIC Streptococcus agalactiae (GC 4564)” value ([3]; inoculum 5×10^5 CFU/mL, strain GC 4564) was 0.5 µg/mL (≈ 0.341 µM). The “MIC Streptococcus pneumoniae (GC 4565)” value ([3]; inoculum 5×10^5 CFU/mL, strain GC 4565) was 0.12 µg/mL (≈ 0.0819 µM), the “MIC Coagulase Negative Staphylococcus (GC 4547)” value [4] was 1 µg/mL (≈ 0.682 µM) and the “MIC Coagulase Negative Staphylococcus (GC 4548)” value [4] was 0.5 µg/mL (≈ 0.341 µM). For the same compound, the “MIC Coagulase Negative Staphylococcus (GC 4549)” value [4] was 1 µg/mL (≈ 0.682 µM), the “MIC Coagulase Negative Staphylococcus (GC 4551)” value [4] was 2 µg/mL (≈ 1.36 µM) and the “MIC Coagulase Negative Staphylococcus (GC 6257)” value [4] was 0.5 µg/mL (≈ 0.341 µM). The “MIC Staphylococcus aureus (ATCC 29213)” value [4] was 2 µg/mL (≈ 1.36 µM), the “MIC Staphylococcus aureus (GC 1131)” value [4] was 2 µg/mL (≈ 1.36 µM) and the “MIC Staphylococcus aureus (GC 3051)” value [4] was 2 µg/mL (≈ 1.36 µM). For the same compound, the “MIC Staphylococcus aureus (GC 3053)” value [4] was 2 µg/mL (≈ 1.36 µM), the “MIC Staphylococcus aureus (GC 4541)” value [4] was 1 µg/mL (≈ 0.682 µM) and the “MIC Staphylococcus aureus (GC 4542)” value [4] was 2 µg/mL (≈ 1.36 µM). For the same compound, the “MIC Staphylococcus aureus (GC 4544)” value [4] was 2 µg/mL (≈ 1.36 µM), the “MIC Staphylococcus aureus (GC 4545)” value [4] was 1 µg/mL (≈ 0.682 µM) and the “MIC Staphylococcus aureus-SMITH (GC 4543)” value [4] was 1 µg/mL (≈ 0.682 µM). The “MIC Staphylococcus haemolyticus (GC 4546)” value [4] was 1 µg/mL (≈ 0.682 µM), the “MIC Staphylococcus aureus (ATCC 29213)” value ([4]; strain ATCC 29213) was 2 µg/mL (≈ 1.36 µM) and the “MIC Staphylococcus aureus (GC 1131)” value ([4]; strain GC 1131) was 2 µg/mL (≈ 1.36 µM). For the same compound, the “MIC Staphylococcus aureus (GC 3051)” value ([4]; strain GC 3051) was 2 µg/mL (≈ 1.36 µM), the “MIC Staphylococcus aureus (GC 3053)” value ([4]; strain GC 3053) was 2 µg/mL (≈ 1.36 µM) and the “MIC Staphylococcus aureus (GC 4541)” value ([4]; strain GC 4541) was 1 µg/mL (≈ 0.682 µM). The “MIC Staphylococcus aureus (GC 4542)” value ([4]; strain GC 4542) was 2 µg/mL (≈ 1.36 µM), the “MIC Staphylococcus aureus-SMITH (GC 4543)” value ([4]; strain GC 4543) was 1 µg/mL (≈ 0.682 µM) and the “MIC Staphylococcus aureus (GC 4544)” value ([4]; strain GC 4544) was 2 µg/mL (≈ 1.36 µM). The “MIC Staphylococcus aureus (GC 4545)” value ([4]; strain GC 4545) was 1 µg/mL (≈ 0.682 µM), the “MIC Staphylococcus haemolyticus (GC 4546)” value ([4]; strain GC 4546) was 1 µg/mL (≈ 0.682 µM) and the “MIC Coagulase Negative Staphylococcus (GC 4547)” value ([4]; strain GC 4547) was 1 µg/mL (≈ 0.682 µM). The “MIC Coagulase Negative Staphylococcus (GC 4548)” value ([4]; strain GC 4548) was 0.5 µg/mL (≈ 0.341 µM), the “MIC Coagulase Negative Staphylococcus (GC 4549)” value ([4]; strain GC 4549) was 1 µg/mL (≈ 0.682 µM) and the “MIC Coagulase Negative Staphylococcus (GC 4551)” value ([4]; strain GC 4551) was 2 µg/mL (≈ 1.36 µM). The “MIC Coagulase Negative Staphylococcus (GC 6257)” value ([4]; strain GC 6257) was 0.5 µg/mL (≈ 0.341 µM), the “MIC Enterococcus avium (GC 4558)” value [5] was 8 µg/mL (≈ 5.46 µM) and the “MIC Enterococcus faecalis (ATCC 29212)” value [5] was 8 µg/mL (≈ 5.46 µM). The “MIC Enterococcus faecalis (GC 2242)” value [5] was 8 µg/mL (≈ 5.46 µM), the “MIC Enterococcus faecalis (GC 2691)” value [5] was 4 µg/mL (≈ 2.73 µM) and the “MIC Enterococcus faecalis (GC 3059)” value [5] was 8 µg/mL (≈ 5.46 µM). For the same compound, the “MIC Enterococcus faecalis (GC 4552)” value [5] was 8 µg/mL (≈ 5.46 µM), the “MIC Enterococcus faecalis (GC 4553)” value [5] was 8 µg/mL (≈ 5.46 µM) and the “MIC Enterococcus faecalis (GC 4554)” value [5] was 8 µg/mL (≈ 5.46 µM). The “MIC Enterococcus faecalis (GC 6189)” value [5] was 4 µg/mL (≈ 2.73 µM), the “MIC Enterococcus faecium (GC 2243)” value [5] was 8 µg/mL (≈ 5.46 µM) and the “MIC Enterococcus faecium (GC 4556)” value [5] was 8 µg/mL (≈ 5.46 µM). The “MIC Enterococcus faecium (GC 4557)” value [5] was 2 µg/mL (≈ 1.36 µM), the “MIC Enterococcus faecalis (ATCC 29212)” value ([5]; inoculum 5×10^5 CFU/mL, strain ATCC 29212) was 8 µg/mL (≈ 5.46 µM) and the “MIC Enterococcus faecalis (GC 2242)” value ([5]; inoculum 5×10^5 CFU/mL, strain GC 2242) was 8 µg/mL (≈ 5.46 µM). The “MIC Enterococcus faecium (GC 2243)” value ([5]; inoculum 5×10^5 CFU/mL, strain GC 2243) was 8 µg/mL (≈ 5.46 µM), the “MIC Enterococcus faecalis (GC 2691)” value ([5]; inoculum 5×10^5 CFU/mL, strain GC 2691) was 4 µg/mL (≈ 2.73 µM) and the “MIC Enterococcus faecalis (GC 3059)” value ([5]; inoculum 5×10^5 CFU/mL, strain GC 3059) was 8 µg/mL (≈ 5.46 µM). For the same compound, the “MIC Enterococcus faecalis (GC 4552)” value ([5]; inoculum 5×10^5 CFU/mL, strain GC 4552) was 8 µg/mL (≈ 5.46 µM), the “MIC Enterococcus faecalis (GC 4553)” value ([5]; inoculum 5×10^5 CFU/mL, strain GC 4553) was 8 µg/mL (≈ 5.46 µM) and the “MIC Enterococcus faecalis (GC 4554)” value ([5]; inoculum 5×10^5 CFU/mL, strain GC 4554) was 8 µg/mL (≈ 5.46 µM). For the same compound, the “MIC Enterococcus faecium (GC 4556)” value ([5]; inoculum 5×10^5 CFU/mL, strain GC 4556) was 8 µg/mL (≈ 5.46 µM), the “MIC Enterococcus faecium (GC 4557)” value ([5]; inoculum 5×10^5 CFU/mL, strain GC 4557) was 2 µg/mL (≈ 1.36 µM) and the “MIC Enterococcus avium (GC 4558)” value ([5]; inoculum 5×10^5 CFU/mL, strain GC 4558) was 8 µg/mL (≈ 5.46 µM). The “MIC Enterococcus faecalis (GC 6189)” value ([5]; inoculum 5×10^5 CFU/mL, strain GC 6189) was 4 µg/mL (≈ 2.73 µM), the “MIC Escherichia coli (ATCC 25922)” value [6] was 64 µg/mL (≈ 43.7 µM) and the “MIC Escherichia coli (GC 4559)” value [6] was >64 µg/mL. The “MIC Escherichia coli (GC 4560)” value [6] was 1 µg/mL (≈ 0.682 µM), the “Anatomical Pathology (Day 10), Heart” value [7] was 0 and the “Anatomical Pathology (Day 10), Kidney” value [7] was “+++”.
